Test results published in patent publication US6855807B1 (priority 1999, dated 2005).
Read-outs that look alike come from different tables or passages of the source.

Columns and labels:
kappa opioid receptor = molecular target: T1, kappa opioid receptor (Rattus norvegicus, UniProt P34975); experiment: biochemical; format: binding
T1 construct: expressed in transfected cells; host or cells: HEK293

kappa-delta heterodimer = molecular target: T2, kappa-delta heterodimer (UniProt P32300+P34975); experiment: biochemical; format: binding, rat kappa, mouse delta
T2 construct: myc; FLAG; expressed in transfected cells; host or cells: HEK293
T2 sequence (P34975 whole entry): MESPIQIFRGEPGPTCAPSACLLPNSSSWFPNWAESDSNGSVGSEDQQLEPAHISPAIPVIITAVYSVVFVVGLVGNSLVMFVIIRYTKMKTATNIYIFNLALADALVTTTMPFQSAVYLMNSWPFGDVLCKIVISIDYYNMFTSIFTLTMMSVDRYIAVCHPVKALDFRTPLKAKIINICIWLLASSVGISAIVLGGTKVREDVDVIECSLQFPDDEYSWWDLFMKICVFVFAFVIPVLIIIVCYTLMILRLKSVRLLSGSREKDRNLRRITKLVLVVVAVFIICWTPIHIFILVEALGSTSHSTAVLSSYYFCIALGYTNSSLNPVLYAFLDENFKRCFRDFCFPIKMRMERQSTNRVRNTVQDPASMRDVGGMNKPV
T2 sequence (P32300 whole entry): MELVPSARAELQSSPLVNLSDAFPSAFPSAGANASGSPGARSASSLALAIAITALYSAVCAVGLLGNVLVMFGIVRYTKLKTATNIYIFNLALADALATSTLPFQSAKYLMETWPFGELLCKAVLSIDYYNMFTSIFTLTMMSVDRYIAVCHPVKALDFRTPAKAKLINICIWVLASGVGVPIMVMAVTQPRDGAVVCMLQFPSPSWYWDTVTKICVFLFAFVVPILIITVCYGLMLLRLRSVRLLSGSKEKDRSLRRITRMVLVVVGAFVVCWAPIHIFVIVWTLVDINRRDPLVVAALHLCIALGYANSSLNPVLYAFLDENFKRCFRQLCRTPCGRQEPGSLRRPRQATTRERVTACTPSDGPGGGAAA

T1 sequence (P34975 whole entry): as the sequence (P34975 whole entry) above

## O=C1C(=Cc2ccccc2)C[C@@]2(O)[C@H]3Cc4ccc(O)c5c4[C@@]2(CCN3CC2CC2)[C@H]1O5 [BNTX, 7-Benzylidenenaltrexone]
Kappa opioid receptor; read-out: Kappa (Ki)
  Ki: 172 ± 19 nM
kappa-delta heterodimer; read-out: Kappa-Delta (Ki)
  Ki: 98 ± 19 nM

## CCC12CCN(CC3(O)CC3)C(Cc3ccc(O)cc31)C2(C)C (stereo not shown) [Bremazocine]
Kappa opioid receptor
  Ki: 0.4 ± 0.11 nM
kappa-delta heterodimer; Kappa-Delta (Ki)
  Ki: 1.2 ± 0.1 nM

## CC[C@]12CCN(CC3CC3)[C@H](C(=O)c3ccc(O)cc31)[C@@H]2C [EKC, ethylketocyclazocine]
Kappa opioid receptor
  Ki: 5.7 ± 0.79 nM
kappa-delta heterodimer; Kappa-Delta (Ki)
  Ki: 2.6 ± 0.2 nM

## Oc1ccc2c3c1O[C@H]1c4[nH]c5ccccc5c4C[C@@]4(O)[C@@H](C2)N(CC2CC2)CC[C@]314 [Naltrinole]
Kappa opioid receptor
  Ki: 44.3 ± 1.1 nM
kappa-delta heterodimer; Kappa-Delta (Ki)
  Ki: 44 ± 1.1 nM

## Oc1ccc2c3c1O[C@H]1c4[nH]c5c(c4C[C@@]4(O)[C@@H](C2)N(CC2CC2)CC[C@]314)C[C@@]1(O)[C@H]2Cc3ccc(O)c4c3[C@@]1(CCN2CC1CC1)[C@H]5O4 [nor-BNI, nor-binaltorphimine]
Kappa opioid receptor
  Ki: 4.9 ± 0.3 nM
  affinity of kappa receptors (in words): high affinities
